Columns and labels:
[1] = test system: southern corn rootworm (Diabrotica undecimpunctata howardi BABER); experiment: Soil treatment test against southern corn rootworm larvae (mortality); type: in vivo; details: 48 h, 1 ppm active ingredient in soil, third instar larvae, two days after liberation
Procedure: The emulsifiable concentrate of each test compound formulated according to Formulation example 1 was diluted with water, and 5 ml of the resulting aqueous dilute liquor was mixed with 50 g of soil to make the concentration of active ingredient in soil 1 ppm. The soil was then placed in a polyethylene cup of 5.6 cm in diameter and 5.8 cm high, and two pieces of corn having roots of 2 to 3 cm long were planted. At the same time, ten third instar larvae of southern corn rootworm (Diabrotica undecimpunctata howardi BABER) were liberated in the cup. Two days after liberation, the number of the dead and alive larvae was counted to obtain mortality (%).

[2] = Acute oral toxicity in mouse (mortality); details: in vivo; oral (stomach sound), 100 mg/kg, ICR mouse, observed for 7 days, 5 head per group; read-out: Mortality (%) at the dose of 100 mg/kg
Procedure: After fasting of about 24 hours, ICR series mouse was weighed by an electronic balance. A stomack sound for mouse was attached to a syringe filled with test solution, the syringe end was slid to innermost of the mouse's throat to insert it to the stomack, and a definite amount of the test solution was injected. 4 Hours after the administration, a bait and water were given to the mouse for 7 days to observe a mortality (5 head per group).

[3] = test system: root-knot nematodes (Meloidogyne sp.); experiment: Soil treatment test against root-knot nematodes on tomato plants (degree of root-knot); type: in vivo; parameters: key: -: No settlement; - to +: Not more than 10% as compared with untreated plot; +: 10% - 40% as compared with untreated plot; ++: 40% - 80% as compared with untreated plot; +++: The same as or more than untreated plot; details: observed three weeks after planting
Procedure: The emulsifiable concentrate of each test compound formulated according to Formulation example 1 was diluted with water, and 5 ml of the resulting aqueous dilute liquor was mixed with 600 g of soil contaminated with root-knot nematodes (Meloidogyne sp.) to make the concentration of active ingredient in soil 4 or 1 ppm. The soil was placed in a polyethylene cup of 12 cm in diameter and 8 cm in height, and three tomato plants of 3 to 4 leaf stage were planted.

[4] = test system: carmine spider mite (Tetranychus cinnabarinus); experiment: Spray and soil drench test against carmine spider mite on kidney bean (degree of damage); type: in vivo; parameters: key: -: Little damage is observed.; +: Slight damage is observed.; ++: Same damage as in the untreated plot is observed; details: 500 ppm spray plus soil drench, examined after 8 days
Procedure: Female adults of carmine spider mite (Tetranychus cinnabarinus) were made parasitic on the leaves of potted kidney bean in a primary leaf stage, at a rate of 10 adults per leaf, which had elapsed seven days after sowing, and stored in a constant-temperature room kept at 25°C. After six days, 15 ml of a dilute solution, previously prepared by diluting the emulsifiable concentrate of the following test compounds obtained according to Formulation example 1 with water so that the active ingredient concentration was 500 ppm, was sprayed thereon by means of a turn table. At the same time, soil drench was carried out with 2 ml of the dilute solution. After 8 days, the degree of damage of each kidney bean by mites was examined.
The degree of damage was classified into three stages, -, + and ++. - : Little damage is observed. + : Slight damage is observed. ++ : Same damage as in the untreated plot is observed.

[5] = concentration in the soil 1 ppm
[6] = concentration in the soil 4 ppm

Structure (SMILES) | mortality at 1 ppm [1] [%] | mortality at 168 h [2] [%] | Extent of settlement [3, 5] | Extent of settlement [3, 6] | Degree of damage [4]
CCCSP(=O)(OCC)Oc1ccccc1 (stereo not drawn) [(A)] | 70 | 100 |  |  | 
CCOP(=O)(Oc1ccccc1)SC(C)C (stereo not drawn) [(B)] | 0 | 100 | +++ | + (10% - 40% as compared with untreated plot) | 
CCOP(=O)(Oc1ccccc1)SC(C)CC (stereo not drawn) [(C)] |  | 100 | +++ | - to + (Not more than 10% as compared with untreated plot) | 
Cc1cc(Cl)ccc1/N=C/N(C)C [Chlorodimeform] |  |  |  |  | +
CCOP(=O)(Oc1ccccc1)SC(C)(C)C (stereo not drawn) [Present compound, S-tert-butyl O-ethyl O-phenyl phosphorothiolate] | 100 | 0 | - to + (Not more than 10% as compared with untreated plot) | - | -

From EP0278661A1, “A thiophosphoric acid ester as an insecticide, nematocide and acaricide” (priority 1987, dated 1988)
